Measurements published in patent US11485728B2, “Small molecules for the treatment of autoimmune diseases and cancer” (Athos Therapeutics, Inc., priority 2020, dated 2022).
pIC50: −log10 of the molar value.

Tests used:
CYP1A2 = molecular target: T1, CYP1A2 (Homo sapiens, UniProt P05177); test: CYP-direct inhibition, CYP1A2; format: in vitro ADME; details: human liver microsome; substrate ethoxy-resorufin; read-out: IC50 CYP-1A2
T1 construct: from tissue; host or cells: pooled human liver microsomes
T1 sequence (P05177 1-516): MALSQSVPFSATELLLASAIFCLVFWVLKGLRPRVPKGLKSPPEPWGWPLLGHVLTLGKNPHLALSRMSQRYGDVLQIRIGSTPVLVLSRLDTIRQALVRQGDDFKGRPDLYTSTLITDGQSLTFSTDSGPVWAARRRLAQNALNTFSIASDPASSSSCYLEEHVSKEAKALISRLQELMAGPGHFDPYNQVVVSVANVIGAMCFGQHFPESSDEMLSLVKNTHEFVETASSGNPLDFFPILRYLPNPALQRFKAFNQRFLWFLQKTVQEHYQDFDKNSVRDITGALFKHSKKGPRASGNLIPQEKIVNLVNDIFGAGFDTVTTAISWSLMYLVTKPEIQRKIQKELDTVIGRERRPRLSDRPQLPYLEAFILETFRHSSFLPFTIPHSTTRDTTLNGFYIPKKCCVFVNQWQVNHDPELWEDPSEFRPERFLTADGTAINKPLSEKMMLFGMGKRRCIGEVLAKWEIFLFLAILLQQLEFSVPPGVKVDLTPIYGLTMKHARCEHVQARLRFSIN
Method: (§1) Many drugs inhibit cytochrome P450 enzymes to cause clinically significant changes in the pharmacokinetics of other drugs. In vitro cytochrome P450 inhibition, can provide crucial information in evaluating potential clinical drug-drug interactions and is useful for focusing in vivo tests to areas of concern. The cytochrome P450 inhibition assay was developed by preparing a working cocktail solution consisting of six probe substrates 10 μM ethoxy-resorufin (CYP1A2), 100 μM rosiglitazone (CYP2C8), 50 μM diclofenac (CYP2C9), 300 μM S-mephenytoin (CYP2C19), 50 μM dextromethorphan (CYP2D6), and 20 μM midazolam (CYP3A4). A mixture solution consists of 140 uL of 0.286 mg/mL of pooled human liver microsome working solution and 20 uL working solutions of test articles, standard control inhibitors, or positive control placebo and 20 uL of substrate cocktail mixture working solution was prepared. The mixture solution was pre-warm in a gentle shaking bath at 37±2° C. for 5 minutes. The enzymatic reaction started by adding 20 uL of NRS working solution to the mixture solution and incubated for 10 minutes at 37±2° C. To stop the reaction, an addition of 400 μL cold stop solution (acetonitrile containing 50 ng/mL Tolbutamide as an internal standard (I.Std.) was added to the mixture solution. The final concentration of test article, inhibitors, substrates, and cofactors are noted in Table 0.1 below. Two individual samples were prepared for each test compound. The extracted samples were vortexed and then centrifuged at 4500 rpm for 7 minutes using Eppendorf Centrifuge 5910R. 200 uL of supernatant was diluting with 200 uL of 50% Methanol into 96-DW plate for LC/MS/MS analysis
(§2) Concentration-response plots are used to determine the effects of an inhibitor on an enzymatic reaction. A typical concentration-response plot provides fractional activity (Y axis) is plotted as a function of log inhibitor concentration (X axis). The data are fitted using a standard Sigmoidal dose-response equation which is also called a […] logistic equation. The concentration of compound that results in 50% inhibition of maximal activity is termed as the IC50 (inhibitor concentration yielding 50% inhibition). IC50 value is calculated using Prism GraphPad software, version 9. […].
(§3) Cytochrome P450 inhibition of a drug is a key factor in determining pharmacokinetic drug-drug interactions. The objective of this study was to evaluate the inhibition potential of G9a inhibitors on six (6) major human cytochrome P450 enzymes, including CYP1A2, CYP2C8, CYP2C9, CYP2C19, CYP2D6, and CYP3A4. Inhibition was determined by using a substrate cocktail and analyzing the rate of specific metabolites formation. The cytochrome P450 inhibition assay was developed using a cocktail consisting of six (6) probe substrates ethoxy-resorufin (CYP1A2), rosiglitazone (CYP2C8), diclofenac (CYP2C9), S-mephenytoin (CYP2C19), dextromethorphan (CYP2D6), and midazolam (CYP3A4). The cocktail was incubated in human liver microsome with NADPH regenerating system (NRS) in a shaking bath at 37±2° C. The formation of specific metabolites was monitored by LC/MS/MS. Test compound was added to the cocktail-liver microsome mixture at varying concentrations and its effect on cytochrome P450 activity was determined by analyzing the rate of specific metabolite formation. The percent inhibition was calculated and plotted with reference to the concentration, and the IC50 value for inhibition was derived by fitting the data with a using log(inhibitor) vs. normalized response with variable slope least squares fit by Graphpad Prism® software. […].

CYP2C19 = molecular target: T2, CYP2C19 (Homo sapiens, UniProt P33261); test: CYP-direct inhibition, CYP2C19; format: in vitro ADME
T2 construct: from tissue; host or cells: pooled human liver microsomes
T2 sequence (P33261 whole entry): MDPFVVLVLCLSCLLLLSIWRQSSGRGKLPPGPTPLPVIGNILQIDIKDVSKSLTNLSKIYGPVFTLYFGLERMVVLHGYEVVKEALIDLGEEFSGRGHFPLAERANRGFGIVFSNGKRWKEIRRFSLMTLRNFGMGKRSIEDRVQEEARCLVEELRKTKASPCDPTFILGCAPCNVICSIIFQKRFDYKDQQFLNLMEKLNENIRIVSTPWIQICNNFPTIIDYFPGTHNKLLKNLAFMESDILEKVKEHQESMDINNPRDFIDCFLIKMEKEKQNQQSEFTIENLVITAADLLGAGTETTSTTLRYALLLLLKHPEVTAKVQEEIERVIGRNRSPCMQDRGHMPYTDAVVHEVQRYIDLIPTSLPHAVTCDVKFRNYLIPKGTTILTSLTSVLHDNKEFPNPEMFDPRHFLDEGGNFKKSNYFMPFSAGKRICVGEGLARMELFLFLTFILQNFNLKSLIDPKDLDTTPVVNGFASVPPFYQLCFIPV
Method: as §1, §2, §3

Row | Structure (SMILES) | pIC50 (CYP1A2) | pIC50 (CYP2C19)
1 | COc1cc2c(NC3CCS(=O)(=O)CC3)nc(N3CCC(F)(F)CC3)nc2cc1OCCCN1CCCC1 [Compound 1, 4-((2-(4,4-difluoropiperidin-1-yl)-6-methoxy-7-(3-(pyrrolidin-1-yl)propoxy)quinazolin-4-yl)amino)tetrahydro-2H-thiopyran 1,1-dioxide] | < 4.00 | < 4.00
2 | COc1cc2c(NC3CCNCC3)nc(N3CCC(F)(F)CC3)nc2cc1OCCCN1CCCC1 [Compound 8, 2-(4,4-difluoropiperidin-1-yl)-6-methoxy-N-(piperidin-4-yl)-7-(3-(pyrrolidin-1-yl)propoxy)quinazolin-4-amine] | < 4.00 | < 4.00
3 | COc1cc2c(NCC(N)=O)nc(N3CCC(F)(F)CC3)nc2cc1OCCCN1CCCC1 [Compound 9, 2-((2-(4,4-difluoropiperidin-1-yl)-6-methoxy-7-(3-(pyrrolidin-1-yl)propoxy)quinazolin-4-yl)amino)acetamide] | < 4.00 | < 4.00
4 | COc1cc2c(NC3COC3)nc(N3CCC(F)(F)CC3)nc2cc1OCCCN1CCCC1 [Compound 11, 2-(4,4-difluoropiperidin-1-yl)-6-methoxy-N-(oxetan-3-yl)-7-(3-(pyrrolidin-1-yl)propoxy)quinazolin-4-amine] | < 4.00 | < 4.00
5 | COc1cc2c(NC3CCS(=O)(=O)CC3)nc(N3CCCC3)nc2cc1OCCCN1CCCC1 [Compound 80, 4-((6-methoxy-2-(pyrrolidin-1-yl)-7-(3-(pyrrolidin-1-yl)propoxy)quinazolin-4-yl)amino)tetrahydro-2H-thiopyran 1,1-dioxide] | < 4.00 | < 4.00
6 | COc1cc2c(NC3CCS(=O)(=O)CC3)nc(N3CCOCC3)nc2cc1OCCCN1CCCC1 [Compound 102, 4-((6-methoxy-2-morpholino-7-(3-(pyrrolidin-1-yl)propoxy)quinazolin-4-yl)amino)tetrahydro-2H-thiopyran 1,1-dioxide] | < 4.00 | < 4.00
7 | COc1cc2c(NC3CCS(=O)(=O)CC3)nc(N3CCS(=O)(=O)CC3)nc2cc1OCCCN1CCCC1 [Compound 103, 4-(4-((1,1-dioxidotetrahydro-2H-thiopyran-4-yl)amino)-6-methoxy-7-(3-(pyrrolidin-1-yl)propoxy)quinazolin-2-yl)thiomorpholine 1,1-dioxide] | < 4.00 | < 4.00
8 | COc1cc2c(NC3CCS(=O)(=O)CC3)nc(N3CCN(C)CC3)nc2cc1OCCCN1CCCC1 [Compound 109, 4-((6-methoxy-2-(4-methylpiperazin-1-yl)-7-(3-(pyrrolidin-1-yl)propoxy)quinazolin-4-yl)amino)tetrahydro-2H-thiopyran 1,1-dioxide] | < 4.00 | < 4.00
9 | COc1cc2c(NC3CCS(=O)(=O)CC3)nc(N3CCCN(C)CC3)nc2cc1OCCCN1CCCC1 [Compound 110, 4-((6-methoxy-2-(4-methyl-1,4-diazepan-1-yl)-7-(3-(pyrrolidin-1-yl)propoxy)quinazolin-4-yl)amino)tetrahydro-2H-thiopyran 1,1-dioxide] | < 4.00 | < 4.00
10 | COc1cc2c(NC3CCN(C(C)C)CC3)nc(-n3ccnc3)nc2cc1OCCCN1CCCC1 [Compound 156, 2-(1H-imidazol-1-yl)-N-(1-isopropylpiperidin-4-yl)-6-methoxy-7-(3-(pyrrolidin-1-yl)propoxy)quinazolin-4-amine] | < 4.00 | < 4.00
11 | COc1cc2c(NC3CCN(C(C)C)CC3)nc(-n3cccn3)nc2cc1OCCCN1CCCC1 [Compound 157, N-(1-isopropylpiperidin-4-yl)-6-methoxy-2-(1H-pyrazol-1-yl)-7-(3-(pyrrolidin-1-yl)propoxy)quinazolin-4-amine] | < 4.00 | < 4.00
12 | COc1cc2c(N[C@H]3CCCNC3)nc(N3CCCC3)nc2cc1OCCCN1CCCC1 [Compound 158, (S)-6-methoxy-N-(piperidin-3-yl)-2-(pyrrolidin-1-yl)-7-(3-(pyrrolidin-1-yl)propoxy)quinazolin-4-amine] | < 4.00 | < 4.00
13 | COc1cc2c(N[C@@H]3CCCNC3)nc(N3CCCC3)nc2cc1OCCCN1CCCC1 [Compound 159, (R)-6-methoxy-N-(piperidin-3-yl)-2-(pyrrolidin-1-yl)-7-(3-(pyrrolidin-1-yl)propoxy)quinazolin-4-amine] | < 4.00 | < 4.00
14 | COc1cc2c(NC3CCOCC3)nc(N3CCCC3)nc2cc1OCCCN1CCCC1 [Compound 164, 6-methoxy-2-(pyrrolidin-1-yl)-7-(3-(pyrrolidin-1-yl)propoxy)-N-(tetrahydro-2H-pyran-4-yl)quinazolin-4-amine] | < 4.00 | < 4.00

More lines, now with the values ahead:

Row | pIC50 (CYP1A2) | pIC50 (CYP2C19) | Structure (SMILES)
15 | < 4.00 | < 4.00 | COc1cc2c(NC3CCOCC3)nc(N3CCC(F)(F)CC3)nc2cc1OCCCN1CCCC1 [Compound 2, 2-(4,4-difluoropiperidin-1-yl)-6-methoxy-7-(3-(pyrrolidin-1-yl)propoxy)-N-(tetrahydro-2H-pyran-4-yl)quinazolin-4-amine]
16 | < 4.00 | < 4.00 | COCCN1CCC(Nc2nc(N3CCC(F)(F)CC3)nc3cc(OCCCN4CCCC4)c(OC)cc23)CC1 [Compound 3, 2-(4,4-difluoropiperidin-1-yl)-6-methoxy-N-(1-(2-methoxyethyl)piperidin-4-yl)-7-(3-(pyrrolidin-1-yl)propoxy)quinazolin-4-amine]
17 | < 4.00 | 4.22 | COCCNc1nc(N2CCC(F)(F)CC2)nc2cc(OCCCN3CCCC3)c(OC)cc12 [Compound 4, 2-(4,4-difluoropiperidin-1-yl)-6-methoxy-N-(2-methoxyethyl)-7-(3-(pyrrolidin-1-yl)propoxy)quinazolin-4-amine]
18 | < 4.00 | < 4.00 | COc1cc2c(NCC3CCN(C)CC3)nc(N3CCC(F)(F)CC3)nc2cc1OCCCN1CCCC1 [Compound 5, 2-(4,4-difluoropiperidin-1-yl)-6-methoxy-N-((1-methylpiperidin-4-yl)methyl)-7-(3-(pyrrolidin-1-yl)propoxy)quinazolin-4-amine]
19 | < 4.00 | 4.35 | COc1cc2c(Nc3ccncc3)nc(N3CCC(F)(F)CC3)nc2cc1OCCCN1CCCC1 [Compound 7, 2-(4,4-difluoropiperidin-1-yl)-6-methoxy-N-(pyridin-4-yl)-7-(3-(pyrrolidin-1-yl)propoxy)quinazolin-4-amine]
20 | 4.98 | 4.12 | COc1cc2c(Nc3ccncc3)nc(-n3ccnc3)nc2cc1OCCCN1CCCC1 [Compound 130, 2-(1H-imidazol-1-yl)-6-methoxy-N-(pyridin-4-yl)-7-(3-(pyrrolidin-1-yl)propoxy)quinazolin-4-amine]
21 | 4.20 | < 4.00 | COc1cc2c(NC3CCOCC3)nc(N3CCC3)nc2cc1OCCCN1CCCC1 [Compound 174, 2-(azetidin-1-yl)-6-methoxy-7-(3-(pyrrolidin-1-yl)propoxy)-N-(tetrahydro-2H-pyran-4-yl)quinazolin-4-amine]
